In patent US7357913B2, “Methods for detecting, prognosing, or monitoring a disorder by comparing relative flux rates of two or more biological molecules in vivo” (The Regents of the University of California, priority 2003, dated 2008):
Entries after “also recorded” stand apart in the source; their conditions may differ.

Key:
[1] = tested on: mouse colon cells (colonocytes); test: Colonocyte proliferation in nude mice, paclitaxel; assay type: in vivo; conditions: SW1573, increasing doses, 2H2O labeling 24 hours
Method: (§1) Nude mice were implanted with human SW1573 lung cancer cells (5×10^6 cells/animal), injected with varying doses of paclitaxel, and labeled with ^2H2O for 24 hours. Both vehicle (1:1 [v/v] solution of ethanol:cremephor EL) and paclitaxel stock (dissolved in 1:1 v/v solution of ethanol:cremephor EL) were diluted 1:6, prior to injection into animals, with sterile 0.1 M Phosphate Buffered Saline (PBS). Tumor cells and bone marrow cells were removed using techniques well known in the art and as described, supra.
(§2) Colonocytes were removed as follows: The colon was removed from animals and washed with 0.1 M Phosphate Buffered Saline (PBS), cut open, and incubated in PBS containing collagenase type2 (72 mg/mL) and DNase (10 μg/mL) at 37° C., gently shaken for 40 minutes. After incubation, tissue was gently scraped and cells were collected by centrifugation at 800×g for 5 minutes at 4° C. The pellet was homogenously suspended in 45% percoll in 1.6% JMEM medium. The suspension was applied on top of a 5 mL cushion of 45% (v/v) percoll in a 75% percoll gradient and centrifuged at 350×g for 30 minutes at room temperature. Colonocytes were collected and washed twice with PBS. Debris was then separated from the cell suspension using a […] filter. […] FIG. 11 depicts the results.

mouse bone marrow cells = test: Bone marrow cell proliferation in nude mice, paclitaxel; assay type: in vivo; conditions: SW1573, increasing doses, 2H2O labeling 24 hours
Method: as §1, §2

[2] = tested on: human SW1573 lung cancer cells; test: Tumor cell proliferation in nude mice with SW1573 cells, paclitaxel; assay type: in vivo; conditions: increasing doses, 2H2O labeling 24 hours
Method: as §1, §2

liver cell = test: Liver cell proliferation after griseofulvin in chow; conditions: C57BL/6 mice, below the no observable effect level, 5 days
Method: (§3) Cell proliferation and collagen synthesis (turnover) were also assessed concurrently (i.e., simultaneously) in mice (C57BL/6 and Balb/c) fed griseofulvin. Griseofulvin is recognized as a hepatotoxin, inducing cell proliferation and porphyria. Mice were administered griseofulvin in their chow (1% w/w) for 5 days.

liver collagen = test: Liver collagen synthesis (turnover) after griseofulvin in chow; assay type: in vivo, mouse; conditions: C57BL/6 mice, doses tested, 5 days (data not shown)
Method: as §3

## CC(=O)O[C@H]1C(=O)[C@@]2(C)[C@H]([C@H](OC(=O)c3ccccc3)[C@]3(O)C[C@H](OC(=O)[C@H](O)[C@@H](NC(=O)c4ccccc4)c4ccccc4)C(C)=C1C3(C)C)[C@]1(OC(C)=O)CO[C@@H]1C[C@@H]2O [paclitaxel]
[1]
  colonocyte proliferation relative to vehicle controls: inhibitory effect, in a dose-dependent manner; also recorded: inhibited, in a dose-dependent manner
Mouse bone marrow cells
  bone marrow cell proliferation relative to vehicle controls: little or no effect
[2]
  tumor cell proliferation relative to vehicle controls: inhibitory effect, in a dose-dependent manner; also recorded: inhibited, in a dose-dependent manner

## COC1=CC(=O)C[C@@H](C)[C@]12Oc1c(Cl)c(OC)cc(OC)c1C2=O [griseofulvin]
Liver cell
  liver cell proliferation, lowest dose / levels below the NOEL: pronounced effects and dose responsiveness; also recorded: observable effect
Liver collagen
  liver collagen synthesis (collagen turnover): no increase; also recorded: no effect
